Ends that are not written are not given here. * marks the point of attachment. Palmitoyl = CCCCCCCCCCCCCCCC(=O)*
What was measured:
DPP-IV = DPP-IV (Homo sapiens, UniProt P27487); test: Degradation of GIP and Glu3-substituted GIP analogs by DPP-IV (HPLC); type: in vitro ADME; settings: for half-life at 2 μm: DPP-IV enzyme (5 mU) in buffer, pH 7.8, incubation with DPP-IV, unit not given (time points in hrs), read-out: Estimated Half-Life (converted); for Intact Peptide Remaining (%) 0 hrs. / remaining at 2 h, 2 μm / remaining at 4 h, 2 μm / remaining at 8 h, 2 μm: incubation with DPP-IV (5 mU), 37°C; for Intact Peptide Remaining (%) 0 hrs.: pH 7.8, 0 hrs; for remaining at 2 h, 2 μm / remaining at 4 h, 2 μm / remaining at 8 h, 2 μm: isolated DPP-IV enzyme (5 mU); for remaining at 2 h, 2 μm: pH 7.8, 2 hrs, read-out: Intact Peptide Remaining (%) 2 hrs.; for remaining at 4 h, 2 μm: pH 7.8, 4 hrs, read-out: Intact Peptide Remaining (%) 4 hrs.; for remaining at 8 h, 2 μm: pH 7.8, 8 hrs, read-out: Intact Peptide Remaining (%) 8 hrs.
DPP-IV, sequence (P27487 whole entry, species assumed): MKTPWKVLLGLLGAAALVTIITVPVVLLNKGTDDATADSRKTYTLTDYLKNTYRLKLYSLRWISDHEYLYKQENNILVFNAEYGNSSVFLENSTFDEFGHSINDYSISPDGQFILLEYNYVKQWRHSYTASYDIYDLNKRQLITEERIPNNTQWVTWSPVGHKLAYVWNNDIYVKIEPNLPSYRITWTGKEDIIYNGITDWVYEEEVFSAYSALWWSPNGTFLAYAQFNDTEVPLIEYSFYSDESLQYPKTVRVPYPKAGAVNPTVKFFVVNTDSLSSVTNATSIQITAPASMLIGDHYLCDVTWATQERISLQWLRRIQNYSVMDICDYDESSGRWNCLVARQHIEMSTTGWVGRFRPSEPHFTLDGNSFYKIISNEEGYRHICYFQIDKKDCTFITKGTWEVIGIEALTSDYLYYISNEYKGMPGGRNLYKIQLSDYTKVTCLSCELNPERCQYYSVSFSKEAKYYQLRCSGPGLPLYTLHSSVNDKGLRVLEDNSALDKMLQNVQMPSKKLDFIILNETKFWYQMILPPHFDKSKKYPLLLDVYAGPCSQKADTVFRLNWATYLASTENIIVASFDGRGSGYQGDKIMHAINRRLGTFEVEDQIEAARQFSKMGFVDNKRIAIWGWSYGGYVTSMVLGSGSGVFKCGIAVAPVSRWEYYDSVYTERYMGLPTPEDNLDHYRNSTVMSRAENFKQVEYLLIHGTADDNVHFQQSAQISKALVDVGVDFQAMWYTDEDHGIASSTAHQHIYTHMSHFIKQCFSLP

human GIP-R = molecular target: T1, human GIP-R (Homo sapiens, UniProt P48546); test: Cyclic AMP production in GIP-R transfected CHL cells; type: cell-based; settings: for inhibition of GIP-stimulated cAMP production: in presence of GIP (10^-7 m)
T1 construct: expressed in transfected cells; host or cells: Chinese Hamster Lung (CHL) fibroblast cells, stably transfected
T1 sequence (P48546 22-466): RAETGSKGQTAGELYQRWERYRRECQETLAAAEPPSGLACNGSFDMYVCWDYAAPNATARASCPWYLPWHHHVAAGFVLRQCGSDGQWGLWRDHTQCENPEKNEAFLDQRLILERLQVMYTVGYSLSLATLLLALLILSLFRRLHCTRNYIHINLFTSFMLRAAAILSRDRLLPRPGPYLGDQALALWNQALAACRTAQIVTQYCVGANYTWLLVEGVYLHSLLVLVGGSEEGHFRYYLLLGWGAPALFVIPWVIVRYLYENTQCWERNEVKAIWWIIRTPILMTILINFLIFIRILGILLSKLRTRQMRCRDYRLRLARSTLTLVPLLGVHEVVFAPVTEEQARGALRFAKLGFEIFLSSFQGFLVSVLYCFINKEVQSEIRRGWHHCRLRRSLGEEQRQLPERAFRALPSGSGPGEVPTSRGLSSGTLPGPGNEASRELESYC
Procedure: Tissue Culture. […] (v/v) fetal bovine serum, 1% (v/v) antibiotics (100 U/ml penicillin, 0.1 mg/ml streptomycin) (all from Gibco, Paisley, Strathclyde, Scotland). BRIN-BD11 cells were cultured in RPMI-1640 tissue culture medium containing 10% (v/v) fetal bovine serum, 1% (v/v) antibiotics (100 U/ml penicillin, 0.1 mg/ml streptomycin) and 11.1 mm glucose. The origin and secretory characteristics of these cells have been described in detail previously (McClenaghan, N. H. et al., 1996, Diabetes 45:1132-1140). The cells were maintained in sterile tissue culture flasks (Corning Glass Works, Sunderland, UK) at 37° C. in an atmosphere of 5% CO2 and 95% air using a LEEC incubator (Laboratory Technical Engineering, Nottingham, UK).
Methods. […] The culture medium was removed and cells subsequently washed twice with 2 ml ice-cold HBS buffer (130 mm NaCl, 20 mm HEPES, 0.9 mm NaHPO4, 0.8 mm MgSO4, 5.4 mm KCl, 1.8 mm CaCl2, 5.6 mm glucose and 25 μm phenol red) (pH 7.4). […] The medium was subsequently removed and the cells lysed with […] of lysing solution (5% TCA, 3% SDS, 92% H2O, also containing 0.1 mm unlabelled cAMP and 0.1 mm unlabelled ATP) (Sigma, Poole, Dorset, UK). The plates were then left on a shaker at room temperature for 30 minutes and tritiated cAMP formation determined by column chromatography using Dowex and alumina ion exchange columns (BioRad Life Science Research, Alpha Analytical, Larne, UK) as previously described (Gault, V. A. et al 2002, Biochem. J. 367:913-920).

BRIN-BD11 cells = test: Insulin secretion from BRIN-BD11 cells; type: cell-based; settings: for Maximal insulin response (% GIP max) / Insulin response in presence of 10^-7 M GIP (% GIP max): BRIN-BD11 cells, 5.6 mm glucose; for Maximal insulin response (% GIP max): 20 min; for Insulin response in presence of 10^-7 M GIP (% GIP max): in presence of 10^-7 M native GIP
Procedure: Tissue Culture. Chinese Hamster Lung (CHL) fibroblast cells stably transfected with the human GIP-R were cultured in DMEM tissue culture medium containing 10%. (v/v) fetal bovine serum, 1% (v/v) antibiotics (100 U/ml penicillin, 0.1 mg/ml streptomycin) (all from Gibco, Paisley, Strathclyde, Scotland). BRIN-BD11 cells were cultured in RPMI-1640 tissue culture medium containing 10% (v/v) fetal bovine serum, 1% (v/v) antibiotics (100 U/ml penicillin, 0.1 mg/ml streptomycin) and 11.1 mm glucose. The origin and secretory characteristics of these cells have been described in detail previously (McClenaghan, N. H. et al., 1996, Diabetes 45:1132-1140). The cells were maintained in sterile tissue culture flasks (Corning Glass Works, Sunderland, UK) at 37° C. in an atmosphere of 5% CO2 and 95% air using a LEEC incubator (Laboratory Technical Engineering, Nottingham, UK).
Methods. Insulin release from BRIN-BD11 cells was determined by use of cell monolayers as described previously (Gault, V. A. et al. 2002, Biochem. J. 367:913-920). In brief, BRIN-BD11 cells were seeded into 24-well plates (Nunc, Roskilde, Denmark) at a density of 1.5×10^5 cells per well and allowed to attach overnight in RPMI-1640 culture medium at 37° C. Acute tests for insulin secretion were preceded by 40 minutes pre-incubation at 37° C. in 1.0 ml Krebs Ringer Bicarbonate Buffer (KRBB, 115 mm NaCl, 4.7 mm KCl, 1.28 mm CaCl2, 1.2 mM MgSO4, 1.2 mm KH2PO4, 25 mM HEPES and 10 mm NaHCO3; pH 7.4 with NaOH) supplemented with 0.1% (w/v) BSA and 1.1 mM glucose. […] After 20 minutes incubation, the buffer was removed and used for measurement of insulin by radioimmunoassay (Flatt, P. R. and Bailey, C. J., 1981, Diabetologia 5:573-577).

ob/ob mice [1] = test: 14 once-daily injections of GIP analogues in ob/ob mice; type: in vivo, mouse; settings: 14 days daily, insulin 50 U/kg
Procedure: (§1) Animals. Obese diabetic (ob/ob) mice derived from the colony maintained at Aston University, UK (Bailey C. J. et al., 1982, Int. J. Obes. 6:11-21) were used at 14-18 weeks of age. Animals were age-matched, divided into groups and housed individually in an air-conditioned room at 22±2° C. with a 12 hour light: 12 hour dark cycle (08:00-20:00 hr). Drinking water and a standard rodent maintenance diet (Trouw Nutrition, Cheshire, UK) were freely available. All animal experiments were carried out in accordance with the UK Animals (Scientific Procedures) Act 1986.
Methods. […] Intraperitoneal glucose tolerance (18 mmol/kg body wt) and insulin sensitivity (50 U/kg body wt) tests were performed at the end of the study period. Blood samples taken from the cut tip of the tail vein of conscious mice at the times indicated in the Figures were immediately centrifuged using a Beckman microcentrifuge (Beckman Instruments, UK) for 30 seconds at 13,000×g. The resulting plasma was then aliquoted into fresh Eppendorf tubes and stored at −20° C. prior to glucose and insulin determinations.

ob/ob mice [2] = test: Acute antihyperglycaemic and insulin releasing activity with glucose and native GIP in ob/ob mice; type: in vivo, mouse; settings: 25 nmol/kg i.p. with GIP and glucose 18 mmol/kg, vs native GIP
Procedure: as §1
Biochemical analysis. Plasma glucose was assayed by an automated glucose oxidase procedure ([…]) using a Beckman Glucose Analyzer II (Beckman Instruments, Galway, Ireland). Plasma insulin was assayed by radioimmunoassay.
Methods. […] All test solutions were administered in a final volume of 5 ml/kg body weight. Blood samples were collected from the cut tip of the tail vein of conscious mice into chilled fluoride/heparin coated glucose microcentrifuge tubes (Sarstedt, Numbrecht, Germany) immediately prior to injection and at 15, 30 and 60 minutes post injection. Blood samples were immediately centrifuged using a Beckmnan microcentrifuge (Beckman Instruments, High Wycombe, Buckinghamshire, UK) for 30 seconds at 13,000×g. Plasma glucose was assayed using a Beckman Glucose Analyzer n (Beckman Instruments, High Wycombe, Buckinghamshire, UK) (Stevens, J. F., 1971, Clin. Chim. Acta 32:199-201) and plasma insulin was determined by RIA (Flatt, P. R. and Bailey, C. J., 1981, Diabetologia 5:573-577). All animal studies were carried out in accordance with the UK Animals (Scientific Procedures) Act 1986.

Substance | half-life at 2 μm (DPP-IV) | Intact Peptide Remaining (%) 0 hrs. (DPP-IV) | remaining at 2 h, 2 μm (DPP-IV) | remaining at 4 h, 2 μm (DPP-IV) | remaining at 8 h, 2 μm (DPP-IV) | EC50 (human GIP-R) | cAMP response in presence of 10^-7 M GIP (% GIP max) (human GIP-R; in presence of 10^-7 M native GIP) | inhibition of GIP-stimulated cAMP production (human GIP-R) | Maximal insulin response (% GIP max) (BRIN-BD11 cells) | Insulin response in presence of 10^-7 M GIP (% GIP max) (BRIN-BD11 cells) | hypoglycemic action of insulin (ob/ob mice [1]) | remaining activity at 0.1 µM (human GIP-R; CHL, read-out: cAMP response in presence of 10^-7 M GIP (% GIP max)) | effect on GIP-stimulated insulin secretion (BRIN-BD11 cells; in presence of GIP (10^-7 m)) | plasma glucose and insulin profiles when administered together with native GIP (ob/ob mice [2])
YAPGTFISDYSIAMDK(Palmitoyl)IHQQDFVNWLLAQKGKKNDWKHNITQ [(Pro^3)LysPAL^16GIP] | > 480 min | 100% | 100% | 100% | 100% | 870 nM | 63 ± 5 % GIP max | similarly inhibited | 48 ± 4 % GIP max | 61 ± 3 % GIP max | significantly augmented |  |  | 
YAYGTFISDYSIAMDKIHQQDFVNWLLAQKGKKNDWKHNITQ [(Tyr^3)GIP] | 90 min | 100% | 34.1 ± 4.1% | 6.3 ± 3.1% | 0% | 1.5 nM |  | did not significantly inhibit | 75 ± 4 % GIP max | 93 ± 2 % GIP max |  | 76 ± 4% | did not significantly affect | significantly inhibited the action of GIP

Reference: patent US20090170762A1, “Treatment of Diabetes Related Obesity” (UUTech Limited, priority 2005, published 2009)
